According to patent publication US8853418B2, “Cyclopentylpyrazoles as N-type calcium channel blockers” (Janssen Pharmaceutica NV, priority 2012, dated 2014):
Read-outs that look alike come from different tables or passages of the source.

Experiments:
[1] = biological target: N-type calcium channel (α1B (Cav2.2), β3 and α2δ subunits) (Homo sapiens, UniProt Q00975); assay: Functional Assay: Antagonism of N-Type Calcium Channel (FDSS calcium mobilization, KCl depolarization); assay type: cell-based
Description: A stable cell line (HEK parent) co-expressing the α1B (Cav2.2), β3 and α2δ subunits of the N-type calcium channel subunits was used. These cells were routinely grown as monolayers in low glucose-containing Dulbecco's Modified Eagle Medium supplemented with 10% FBS, 2 mM L-glutamine, 100 I.U./mL penicillin, 100 μg/mL streptomycin, 400 μg/mL G418 and 200 μg/mL Zeocin (split ratio=1:5). Cells were maintained in 5% CO2 at 37° C. Compounds of Formula (I) were prepared as 10 mM stocks in DMSO from neat compound, if available. Otherwise, the 5 or 10 mM DMSO stock solutions provided in-house were used.
Calcium mobilization responses to KCl depolarization were evaluated by measuring the intensity of calcium-mediated fluorescent signal in the presence of BD Calcium Assay Dye (BD Biosciences, Franklin Lakes, N.J., U.S.A.), utilizing a Functional Drug Screening System (FDSS) by Hamamatsu Corporation (Bridgewater, N.J. U.S.A.).
Twenty-four hr prior to assay, cells were seeded in clear-base poly-D-lysine-coated 384-well plates (BD Biosciences) at a density of 5,000 cells per well in culture medium and grown overnight in 5% CO2 at 37° C. On the day of assay, growth media were removed, and cells were loaded with BD calcium assay dye (BD Biosciences) for 35 min at 37° C. under 5% CO2 and then for 25 min at room temp. Utilizing the FDSS, cells were exposed to representative compounds of Formula (I) at varying concentrations, and intracellular calcium was measured for 5 min prior to the addition of 50 mM KCl for an additional 3 min of measurement.
Calculations and Formulas
IC50 values for representative compounds of Formula (I) were determined from six-point concentration-response experiments and represent the concentration of said compound required to inhibit 50% of the maximal response. Maximal fluorescence intensity (FI) achieved upon addition of 50 mM KCl was exported from the FDSS software and further analyzed using GraphPad Prism 3.02 (Graph Pad Software Inc., San Diego, Calif., U.S.A.). Data were normalized to the maximum average counts from quadruplicate wells for each condition in the presence of 50 mM KCl and to the minimum average counts in the presence of buffer. Theoretical curves were generated using nonlinear regression curve-fitting analysis of either sigmoidal concentration-response or sigmoidal concentration-response (variable slope), and the IC50 values with the best-fit curve determined by GraphPad Prism were reported.

[2] = biological target: N-type calcium channel (Homo sapiens, UniProt Q00975); assay: Automated Electrophysiology Assay (QPatch-HT whole-cell patch clamp; low- and high-frequency stimulation); assay type: cell-based
[3] = HEK cell line, 50 mM KCl depolarization, six-point concentration-response, read-out: FDSS IC50
[4] = 0.1 μM, high-frequency stimulation (15th pulse), read-out: QPatch at High Frequency % Inhibition
[5] = low frequency, 0.1 μM, read-out: QPatch at Low Frequency % Inhibition

N-type calcium channel, sequence (Q00975 whole entry): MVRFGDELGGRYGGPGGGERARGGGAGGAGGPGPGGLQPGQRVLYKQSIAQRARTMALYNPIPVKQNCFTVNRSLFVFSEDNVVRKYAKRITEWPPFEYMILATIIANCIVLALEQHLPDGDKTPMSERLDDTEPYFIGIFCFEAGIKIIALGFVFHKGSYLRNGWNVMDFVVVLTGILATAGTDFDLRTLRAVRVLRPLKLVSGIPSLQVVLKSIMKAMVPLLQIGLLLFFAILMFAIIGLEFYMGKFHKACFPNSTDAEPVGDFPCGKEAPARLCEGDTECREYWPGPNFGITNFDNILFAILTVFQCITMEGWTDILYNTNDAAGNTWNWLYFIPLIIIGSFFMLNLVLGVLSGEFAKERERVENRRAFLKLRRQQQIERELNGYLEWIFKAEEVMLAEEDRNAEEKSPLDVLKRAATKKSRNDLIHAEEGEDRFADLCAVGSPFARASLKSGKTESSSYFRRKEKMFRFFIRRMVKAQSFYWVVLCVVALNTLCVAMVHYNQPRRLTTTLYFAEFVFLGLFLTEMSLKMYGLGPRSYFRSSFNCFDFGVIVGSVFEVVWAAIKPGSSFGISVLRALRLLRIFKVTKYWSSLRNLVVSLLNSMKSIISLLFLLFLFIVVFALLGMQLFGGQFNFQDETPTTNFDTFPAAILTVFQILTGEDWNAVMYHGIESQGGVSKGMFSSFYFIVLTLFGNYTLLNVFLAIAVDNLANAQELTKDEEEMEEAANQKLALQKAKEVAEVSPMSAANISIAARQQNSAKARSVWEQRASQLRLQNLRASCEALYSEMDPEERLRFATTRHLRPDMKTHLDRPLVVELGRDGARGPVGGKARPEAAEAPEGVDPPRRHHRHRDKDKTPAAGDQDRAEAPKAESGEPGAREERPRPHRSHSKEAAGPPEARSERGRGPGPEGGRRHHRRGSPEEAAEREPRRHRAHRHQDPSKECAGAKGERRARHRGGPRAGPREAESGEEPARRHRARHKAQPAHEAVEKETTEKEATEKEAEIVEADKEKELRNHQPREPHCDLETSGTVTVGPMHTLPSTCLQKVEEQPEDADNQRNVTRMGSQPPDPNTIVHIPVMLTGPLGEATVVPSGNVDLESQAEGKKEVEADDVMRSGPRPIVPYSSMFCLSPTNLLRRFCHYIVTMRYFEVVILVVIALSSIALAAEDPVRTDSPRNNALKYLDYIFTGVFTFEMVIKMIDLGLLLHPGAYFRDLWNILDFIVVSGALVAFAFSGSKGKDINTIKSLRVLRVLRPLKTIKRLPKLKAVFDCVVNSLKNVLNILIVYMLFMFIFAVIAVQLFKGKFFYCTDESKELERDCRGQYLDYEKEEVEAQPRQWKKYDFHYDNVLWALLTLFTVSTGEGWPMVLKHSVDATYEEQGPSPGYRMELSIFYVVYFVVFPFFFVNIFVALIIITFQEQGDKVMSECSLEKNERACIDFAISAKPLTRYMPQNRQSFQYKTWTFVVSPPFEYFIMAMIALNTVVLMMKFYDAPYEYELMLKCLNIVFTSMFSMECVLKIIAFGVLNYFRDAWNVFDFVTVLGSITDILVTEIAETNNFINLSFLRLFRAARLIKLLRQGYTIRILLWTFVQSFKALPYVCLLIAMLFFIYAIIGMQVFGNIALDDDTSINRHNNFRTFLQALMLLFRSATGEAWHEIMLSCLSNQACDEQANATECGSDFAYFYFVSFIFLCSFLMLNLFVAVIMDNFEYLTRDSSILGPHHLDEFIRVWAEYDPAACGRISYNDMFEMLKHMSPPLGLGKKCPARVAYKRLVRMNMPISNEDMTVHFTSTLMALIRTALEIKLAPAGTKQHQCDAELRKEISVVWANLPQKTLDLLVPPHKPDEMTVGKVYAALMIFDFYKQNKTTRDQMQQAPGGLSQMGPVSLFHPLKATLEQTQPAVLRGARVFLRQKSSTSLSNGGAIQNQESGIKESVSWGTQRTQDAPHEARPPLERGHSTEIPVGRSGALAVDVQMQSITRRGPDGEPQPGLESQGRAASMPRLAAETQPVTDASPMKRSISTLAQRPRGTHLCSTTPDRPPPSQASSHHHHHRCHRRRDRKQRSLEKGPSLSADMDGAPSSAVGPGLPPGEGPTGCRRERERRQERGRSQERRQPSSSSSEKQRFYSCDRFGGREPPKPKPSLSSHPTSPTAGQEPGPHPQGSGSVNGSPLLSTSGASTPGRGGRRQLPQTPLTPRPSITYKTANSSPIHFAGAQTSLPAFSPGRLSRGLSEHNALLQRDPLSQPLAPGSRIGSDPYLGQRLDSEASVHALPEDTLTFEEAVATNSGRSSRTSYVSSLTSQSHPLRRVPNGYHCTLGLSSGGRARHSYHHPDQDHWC
N-type calcium channel, sequence (P54284 whole entry partner): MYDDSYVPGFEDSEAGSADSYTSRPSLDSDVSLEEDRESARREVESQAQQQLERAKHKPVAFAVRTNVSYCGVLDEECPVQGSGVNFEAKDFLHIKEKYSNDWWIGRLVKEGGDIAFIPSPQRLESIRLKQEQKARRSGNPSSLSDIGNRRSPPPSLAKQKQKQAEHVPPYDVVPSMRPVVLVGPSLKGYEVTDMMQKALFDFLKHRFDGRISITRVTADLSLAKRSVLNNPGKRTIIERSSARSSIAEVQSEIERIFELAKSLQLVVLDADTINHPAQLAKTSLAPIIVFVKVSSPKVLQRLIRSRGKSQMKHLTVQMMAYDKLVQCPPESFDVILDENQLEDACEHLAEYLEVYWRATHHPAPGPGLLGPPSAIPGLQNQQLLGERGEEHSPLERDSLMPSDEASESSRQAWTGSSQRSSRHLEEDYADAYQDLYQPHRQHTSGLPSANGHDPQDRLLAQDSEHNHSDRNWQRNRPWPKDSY
N-type calcium channel, sequence (P54289 25-946 partner limits assumed): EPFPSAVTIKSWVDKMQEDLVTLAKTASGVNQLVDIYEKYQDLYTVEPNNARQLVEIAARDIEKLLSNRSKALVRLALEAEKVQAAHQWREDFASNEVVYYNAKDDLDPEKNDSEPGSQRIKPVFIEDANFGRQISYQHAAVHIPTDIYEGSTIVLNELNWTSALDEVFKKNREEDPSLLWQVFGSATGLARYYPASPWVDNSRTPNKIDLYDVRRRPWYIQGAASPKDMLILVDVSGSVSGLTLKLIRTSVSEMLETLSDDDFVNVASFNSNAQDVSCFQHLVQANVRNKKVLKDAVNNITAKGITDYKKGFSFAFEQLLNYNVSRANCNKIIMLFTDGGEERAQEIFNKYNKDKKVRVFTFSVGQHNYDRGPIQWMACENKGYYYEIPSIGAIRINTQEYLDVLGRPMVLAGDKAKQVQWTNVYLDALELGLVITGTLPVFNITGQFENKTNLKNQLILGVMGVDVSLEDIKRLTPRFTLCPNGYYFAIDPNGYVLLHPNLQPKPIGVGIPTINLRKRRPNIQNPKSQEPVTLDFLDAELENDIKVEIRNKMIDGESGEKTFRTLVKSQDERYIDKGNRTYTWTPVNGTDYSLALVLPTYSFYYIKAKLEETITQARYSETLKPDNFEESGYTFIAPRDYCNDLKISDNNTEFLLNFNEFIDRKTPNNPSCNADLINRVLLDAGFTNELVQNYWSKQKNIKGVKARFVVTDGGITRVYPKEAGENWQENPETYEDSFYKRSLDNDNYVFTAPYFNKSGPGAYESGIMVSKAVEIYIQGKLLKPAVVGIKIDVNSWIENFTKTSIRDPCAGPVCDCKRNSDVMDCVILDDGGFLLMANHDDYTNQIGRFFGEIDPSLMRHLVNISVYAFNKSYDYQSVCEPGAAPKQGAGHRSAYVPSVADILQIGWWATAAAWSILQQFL
N-type calcium channel, sequence (P54289 947-1103 partner limits assumed): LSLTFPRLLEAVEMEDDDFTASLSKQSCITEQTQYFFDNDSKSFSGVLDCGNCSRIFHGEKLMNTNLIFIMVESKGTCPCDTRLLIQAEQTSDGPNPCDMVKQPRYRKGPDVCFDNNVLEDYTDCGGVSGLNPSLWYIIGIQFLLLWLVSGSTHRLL
N-type calcium channel (α1B (Cav2.2), β3 and α2δ subunits), sequence (Q00975 whole entry): as the sequence (Q00975 whole entry) above
N-type calcium channel (α1B (Cav2.2), β3 and α2δ subunits), sequence (P54284 whole entry partner): as the sequence (P54284 whole entry partner) above
N-type calcium channel (α1B (Cav2.2), β3 and α2δ subunits), sequence (P54289 25-946 partner limits assumed): as the sequence (P54289 25-946 partner limits assumed) above
N-type calcium channel (α1B (Cav2.2), β3 and α2δ subunits), sequence (P54289 947-1103 partner limits assumed): as the sequence (P54289 947-1103 partner limits assumed) above

inhibition at 0.33 µM ([1]; 0.33 μM) [%]	IC50 [1, 3] [nM]	Compound	other results
86	50	COc1ccccc1-n1nc2c(c1-c1ccc(Cl)cc1)CC1(C2)OCCCO1 [Compound 54, 3-(4-chlorophenyl)-2-(2-methoxyphenyl)-2,6-dihydro-4H-spiro[cyclopenta[c]pyrazole-5,2′-[1,3]dioxane]]	inhibition at 1 µM ([2]; high-frequency stimulation (15th pulse), read-out: QPatch at High Frequency % Inhibition): 67%; inhibition at 1 µM ([2]; low frequency, read-out: QPatch at Low Frequency % Inhibition): 55%
88	29	COc1ccccc1-n1nc2c(c1-c1ccc(N(C)C)nc1)CC1(C2)OCC(C)(C)CO1 [Compound 97, 5-[2-(2-methoxyphenyl)-5′,5′-dimethyl-2,6-dihydro-4H-spiro[cyclopenta[c]pyrazole-5,2′-[1,3]dioxan]-3-yl]-N,N-dimethylpyridin-2-amine]	inhibition at 0.1 µM [2, 4]: 33%; inhibition at 0.1 µM [2, 5]: 27%
–	29	CCOc1ccccc1-n1nc2c(c1-c1ccc(Cl)cc1)CC(=O)C2 [Compound 36, 3-(4-chlorophenyl)-2-(2-ethoxyphenyl)-2,6-dihydrocyclopenta[c]pyrazol-5(4H)-one]	inhibition at 0.1 µM [2, 4]: 26%; inhibition at 0.1 µM [2, 5]: 18%
87	42	CCOc1ccccc1-n1nc2c(c1-c1ccc(Cl)cc1)C[C@@H](n1ccnc1)C2 [Compound 43, (5R)-3-(4-chlorophenyl)-2-(2-ethoxyphenyl)-5-(1H-imidazol-1-yl)-2,4,5,6-tetrahydrocyclopenta[c]pyrazole]	inhibition at 0.1 µM [2, 4]: 5%; inhibition at 0.1 µM [2, 5]: -22%
98	27	COc1ccccc1-n1nc2c(c1-c1ccc(Cl)cc1)CC1(C2)O[C@@H](C)C[C@H](C)O1 (stereo partly drawn) [Compound 101, (4′S,6′S)-3-(4-chlorophenyl)-2-(2-methoxyphenyl)-4′,6′-dimethyl-2,6-dihydro-4H-spiro[cyclopenta[c]pyrazole-5,2′-[1,3]dioxane]]	inhibition at 0.1 µM [2, 4]: 40%; inhibition at 0.1 µM [2, 5]: 3%
91	12	COc1ccccc1-n1nc2c(c1-c1ccc(N(C)C)cc1)CC1(C2)OCC(C)(C)CO1 [Compound 93, 4-[2-(2-methoxyphenyl)-5′,5′-dimethyl-2,6-dihydro-4H-spiro[cyclopenta[c]pyrazole-5,2′-[1,3]dioxan]-3-yl]-N,N-dimethylaniline]	inhibition at 0.1 µM [2, 4]: 30%; inhibition at 0.1 µM [2, 5]: 12%
–	11	COc1ccccc1-n1nc2c(c1-c1ccc(Cl)cc1)CC1(C2)O[C@H]2CCC[C@H]2O1 (stereo partly drawn) [Compound 115, (3aR,6aS)-3′-(4-chlorophenyl)-2′-(2-methoxyphenyl)-2′,4,5,6,6′,6a-hexahydro-3aH,4′H-spiro[cyclopenta[d][1,3]dioxole-2,5′-cyclopenta[c]pyrazole]]	% Inhibition (%) at 0.33 μM ([1]; 0.33 μM): 85%; QPatch at High Frequency % Inhibition ([2]; 0.1 μM, high-frequency stimulation (15th pulse)): 37%; QPatch at Low Frequency % Inhibition ([2]; low frequency, 0.1 μM): 8%
94	23	COc1ccccc1-n1nc2c(c1-c1ccc(Cl)cc1)C[C@H](OCC(C)C)C2 [Compound 85, (5S)-3-(4-chlorophenyl)-2-(2-methoxyphenyl)-5-(2-methylpropoxy)-2,4,5,6-tetrahydrocyclopenta[c]pyrazole]	inhibition at 0.1 µM [2, 4]: 2%; inhibition at 0.1 µM [2, 5]: -5%
53	230	COc1ccccc1-n1nc2c(c1-c1ccc(Cl)cc1)CC(c1ccc(C(C)C)nc1Cl)C2 (stereo not shown) [Compound 75, 5-[2-Chloro-6-(1-methylethyl)pyridin-3-yl]-3-(4-chlorophenyl)-2-(2-methoxyphenyl)-2,4,5,6-tetrahydrocyclopenta[c]pyrazole]	–
35	–	CCc1nc(C)c(C)n1[C@@H]1Cc2nn(-c3ccccc3OC)c(-c3ccc(C#N)cc3)c2C1 [Compound 133, 4-[(5S)-5-(2-ethyl-4,5-dimethyl-1H-imidazol-1-yl)-2-(2-methoxyphenyl)-2,4,5,6-tetrahydrocyclopenta[c]pyrazol-3-yl]benzonitrile]	–
49	–	CCc1nc(CC)n([C@@H]2Cc3nn(-c4ccccc4OC)c(-c4ccc(C#N)cc4)c3C2)c1CC [Compound 137, 4-[(5S)-2-(2-methoxyphenyl)-5-(2,4,5-triethyl-1H-imidazol-1-yl)-2,4,5,6-tetrahydrocyclopenta[c]pyrazol-3-yl]benzonitrile]	–
61	140	COc1ccccc1-n1nc2c(c1-c1ccc(Cl)cc1)CC(C1CCCCC1)C2 (stereo not shown) [Compound 104, 3-(4-chlorophenyl)-5-cyclohexyl-2-(2-methoxyphenyl)-2,4,5,6-tetrahydrocyclopenta[c]pyrazole]	–
59	170	COc1ccccc1-n1nc2c(c1-c1ccc(C#N)cc1)C[C@H](n1cc(COC(C)=O)nn1)C2 [Compound 128, {1-[(5S)-3-(4-cyanophenyl)-2-(2-methoxyphenyl)-2,4,5,6-tetrahydrocyclopenta[c]pyrazol-5-yl]-1H-1,2,3-triazol-4-yl}methyl acetate]	–
64	130	COc1cc(Cl)ccc1-n1nc2c(c1-c1ccc(Cl)cc1)CC1(C2)OCCCO1 [Compound 52, 2-(4-Chloro-2-methoxyphenyl)-3-(4-chlorophenyl)-2,6-dihydro-4H-spiro[cyclopenta[c]pyrazole-5,2′-[1,3]dioxane]]	–
50	200	CCc1nccn1[C@@H]1Cc2nn(-c3ccccc3OC)c(-c3ccc(C#N)cc3)c2C1 [Compound 134, 4-[(5S)-5-(2-ethyl-1H-imidazol-1-yl)-2-(2-methoxyphenyl)-2,4,5,6-tetrahydrocyclopenta[c]pyrazol-3-yl]benzonitrile]	–
–	–	COc1ccccc1-n1nc2c(c1-c1ccc(Cl)cc1)C[C@H](OCC1CCC1)C2 [Compound 84, (5S)-3-(4-chlorophenyl)-5-(cyclobutylmethoxy)-2-(2-methoxyphenyl)-2,4,5,6-tetrahydrocyclopenta[c]pyrazole]	inhibition at 0.33 µM [1]: 80%
–	200	COc1ccccc1-n1nc2c(c1-c1ccc(Cl)cc1)CC(CCO)C2 (stereo not shown) [Compound 1, 2-[3-(4-chlorophenyl)-2-(2-methoxyphenyl)-2,4,5,6-tetrahydrocyclopenta[c]pyrazol-5-yl]ethanol]	–
–	–	COc1ccccc1-n1nc2c(c1-c1ccc(Cl)cc1)C[C@H](OCC1CCCCC1)C2 [Compound 82, (5S)-3-(4-chlorophenyl)-5-(cyclohexylmethoxy)-2-(2-methoxyphenyl)-2,4,5,6-tetrahydrocyclopenta[c]pyrazole]	inhibition at 0.33 µM [1]: 76%; IC50 ([1]; FDSS IC50): 130 nM
–	59	COc1ccccc1-n1nc2c(c1-c1ccc(Cl)cc1)CC(=O)C2 [Compound 35, 3-(4-chlorophenyl)-2-(2-methoxyphenyl)-2,6-dihydrocyclopenta[c]pyrazol-5(4H)-one]	–
78	91	COc1ccccc1-n1nc2c(c1-c1ccc(Cl)s1)CC1(C2)OCC(C)(C)CO1 [Compound 120, 3-(5-chlorothiophen-2-yl)-2-(2-methoxyphenyl)-5′,5′-dimethyl-2,6-dihydro-4H-spiro[cyclopenta[c]pyrazole-5,2′-[1,3]dioxane]]	–
–	260	CC(C)(C)OC(=O)NCCC1Cc2nn(-c3ccccc3C(F)(F)F)c(-c3ccc(Cl)cc3)c2C1 (stereo not shown) [Compound 20, tert-butyl(2-{3-(4-chlorophenyl)-2-[2-(trifluoromethyl)phenyl]-2,4,5,6-tetrahydrocyclopenta[c]pyrazol-5-yl}ethyl)carbamate]	–
64	270	COc1ccccc1-n1nc2c(c1-c1ccc(C#N)cc1)CC(CC1CCCCC1)C2 (stereo not shown) [Compound 106, 4-[5-(cyclohexylmethyl)-2-(2-methoxyphenyl)-2,4,5,6-tetrahydrocyclopenta[c]pyrazol-3-yl]benzonitrile]	–
79	66	CCOC(=O)c1cncc(C2Cc3nn(-c4ccccc4OC)c(-c4ccc(Cl)cc4)c3C2)c1 (stereo not shown) [Compound 66, Ethyl 5-[3-(4-chlorophenyl)-2-(2-methoxyphenyl)-2,4,5,6-tetrahydrocyclopenta[c]pyrazol-5-yl]pyridine-3-carboxylate]	–
